{"source": "ChEMBL document CHEMBL1255288", "about": "“Linezolid resistance in Staphylococcus aureus: gene dosage effect, stability, fitness costs, and cross-resistances” (2008)", "key": {"Staphylococcus aureus [1]": {"test_system": "Staphylococcus aureus", "experiment": "Antibacterial activity against Staphylococcus aureus T2019 with G2576T mutation in 23S rRNA genes by Etest method", "assay_type": "functional"}, "Staphylococcus aureus [2]": {"test_system": "Staphylococcus aureus", "experiment": "Antibacterial activity against Staphylococcus aureus T991 by Etest method", "assay_type": "functional"}, "Staphylococcus aureus [3]": {"test_system": "Staphylococcus aureus", "experiment": "Antibacterial activity against Staphylococcus aureus T2019/50 expressing 23S rrn1 G2576T, rrn3 G2576T, rrn4 G2576T and rrn5 G2576T mutants by Etest method", "assay_type": "functional"}, "Staphylococcus aureus [4]": {"test_system": "Staphylococcus aureus", "experiment": "Antibacterial activity against Staphylococcus aureus T1910 expressing 23S rrn2 G2576T, rrn3 G2576T, rrn4 G2576T and rrn5 G2576T mutants by Etest method", "assay_type": "functional"}, "Staphylococcus aureus [5]": {"test_system": "Staphylococcus aureus", "experiment": "Antibacterial activity against Staphylococcus aureus T1888 expressing 23S rrn 3 G2576T and rrn 5 G2576T mutants by Etest method", "assay_type": "functional"}, "Staphylococcus aureus [6]": {"test_system": "Staphylococcus aureus", "experiment": "Antibacterial activity against Staphylococcus aureus T1900 expressing 23S rrn3 G2576T, rrn4 G2576T and rrn5 G2576T mutants by Etest method", "assay_type": "functional"}, "Staphylococcus aureus [7]": {"test_system": "Staphylococcus aureus", "experiment": "Antibacterial activity against Staphylococcus aureus T2019 expressing 23S rrn1 G2576T, rrn2 G2576T, rrn3 G2576T, rrn4 G2576T and rrn5 G2576T mutants by Etest method", "assay_type": "functional"}, "Staphylococcus aureus [8]": {"test_system": "Staphylococcus aureus", "experiment": "Antibacterial activity against Staphylococcus aureus T2019 with G2576T mutation in 23S rRNA genes by disc diffusion method", "assay_type": "functional, organism-based"}, "Staphylococcus aureus [9]": {"test_system": "Staphylococcus aureus", "experiment": "Antibacterial activity against Staphylococcus aureus T991 by disc diffusion method", "assay_type": "functional, organism-based"}}, "note": "Calls of active or inactive are those of the source. No cut-off for these calls is given here."}
{"molecule": "GENTAMICIN", "values": [{"measurement": "MIC", "setting": "Staphylococcus aureus [1]", "result": 256, "unit": "µg/mL"}, {"measurement": "MIC", "setting": "Staphylococcus aureus [2]", "result": 256, "unit": "µg/mL"}]}
{"molecule": "C[C@H]1c2cccc(O)c2C(=O)C2=C(O)[C@]3(O)C(=O)C(C(N)=O)=C(O)[C@@H](N(C)C)[C@@H]3[C@@H](O)[C@@H]21.O", "note": "[DOXYCYCLINE]", "values": [{"measurement": "MIC", "setting": "Staphylococcus aureus [1]", "result": 6, "unit": "µg/mL"}, {"measurement": "MIC", "setting": "Staphylococcus aureus [2]", "result": 6, "unit": "µg/mL"}]}
{"molecule": "CC(=O)NC[C@H]1CN(c2ccc(N3CCOCC3)c(F)c2)C(=O)O1", "note": "[LINEZOLID]", "values": [{"measurement": "MIC", "setting": "Staphylococcus aureus [3]", "result": 64, "unit": "µg/mL"}, {"measurement": "MIC", "setting": "Staphylococcus aureus [1]", "result": 128, "unit": "µg/mL"}, {"measurement": "MIC", "setting": "Staphylococcus aureus [4]", "result": 64, "unit": "µg/mL"}, {"measurement": "MIC", "setting": "Staphylococcus aureus [2]", "result": 1, "unit": "µg/mL"}, {"measurement": "MIC", "setting": "Staphylococcus aureus [5]", "result": 8, "unit": "µg/mL"}, {"measurement": "MIC", "setting": "Staphylococcus aureus [6]", "result": 32, "unit": "µg/mL"}, {"measurement": "MIC", "setting": "Staphylococcus aureus [7]", "result": 128, "unit": "µg/mL"}]}
{"molecule": "CC(=O)O[C@H]1C[C@@]2(C)[C@@H](C[C@@H](O)[C@H]3[C@@]4(C)CC[C@@H](O)[C@@H](C)[C@@H]4CC[C@@]32C)/C1=C(\\CCC=C(C)C)C(=O)O", "note": "[FUSIDIC ACID]", "values": [{"measurement": "MIC", "setting": "Staphylococcus aureus [1]", "result": 0.5, "unit": "µg/mL"}, {"measurement": "MIC", "setting": "Staphylococcus aureus [2]", "result": 0.19, "unit": "µg/mL"}]}
{"molecule": "CCC[C@@H]1C[C@@H](C(=O)N[C@@H]([C@H]2O[C@H](SC)[C@H](O)[C@@H](O)[C@H]2O)[C@H](C)Cl)N(C)C1", "note": "[CLINDAMYCIN]", "values": [{"measurement": "MIC", "setting": "Staphylococcus aureus [1]", "result": "> 256", "unit": "µg/mL"}, {"measurement": "MIC", "setting": "Staphylococcus aureus [2]", "result": "> 256", "unit": "µg/mL"}]}
{"molecule": "CN(C)c1cc(NC(=O)CNC(C)(C)C)c(O)c2c1C[C@H]1C[C@H]3[C@H](N(C)C)C(O)=C(C(N)=O)C(=O)[C@@]3(O)C(O)=C1C2=O", "note": "[TIGECYCLINE]", "values": [{"measurement": "MIC", "setting": "Staphylococcus aureus [1]", "result": 0.75, "unit": "µg/mL"}, {"measurement": "MIC", "setting": "Staphylococcus aureus [2]", "result": 1, "unit": "µg/mL"}]}
{"molecule": "O=C(N[C@H](CO)[C@H](O)c1ccc([N+](=O)[O-])cc1)C(Cl)Cl", "values": [{"measurement": "MIC", "setting": "Staphylococcus aureus [8]", "result": "inactive"}, {"measurement": "Activity", "setting": "Staphylococcus aureus [9]", "result": "Active"}]}
{"molecule": "CC[C@H]1OC(=O)[C@H](C)[C@@H](O[C@H]2C[C@@](C)(OC)[C@@H](O)[C@H](C)O2)[C@H](C)[C@@H](O[C@@H]2O[C@H](C)C[C@H](N(C)C)[C@H]2O)[C@](C)(O)C[C@@H](C)C(=O)[C@H](C)[C@@H](O)[C@]1(C)O", "note": "[ERYTHROMYCIN]", "values": [{"measurement": "MIC", "setting": "Staphylococcus aureus [1]", "result": "> 256", "unit": "µg/mL"}, {"measurement": "MIC", "setting": "Staphylococcus aureus [2]", "result": "> 256", "unit": "µg/mL"}]}
